{"source": "ChEMBL document CHEMBL1201862", "about": "“PubChem BioAssay data set” (2004)", "experiment_in_all_cases": "NCI tumour cell line growth inhibition, 48 h", "key": {"[1]": {"system": "UO-31"}, "[2]": {"system": "CAKI-1"}, "[3]": {"system": "Malme-3M"}, "[4]": {"system": "U-251"}, "[5]": {"system": "HOP-62"}, "[6]": {"system": "COLO 205"}, "[7]": {"system": "DLD-1"}, "[8]": {"system": "SK-OV-3"}, "[9]": {"system": "ACHN"}, "[10]": {"system": "MOLT-4"}, "[11]": {"system": "LXFL 529"}, "[12]": {"system": "OVCAR-5"}, "[13]": {"system": "TK-10"}, "[14]": {"system": "SK-MEL-2"}, "[15]": {"system": "SK-MEL-28"}, "[16]": {"system": "DMS-273"}, "[17]": {"system": "CCRF-CEM"}, "[18]": {"system": "HOP-92"}, "[19]": {"system": "XF498"}, "[20]": {"system": "HCT-116"}, "[21]": {"system": "RXF 393"}, "[22]": {"system": "HL-60"}, "[23]": {"system": "EKVX"}, "[24]": {"system": "SK-MEL-5"}, "[25]": {"system": "NCI-H460"}, "[26]": {"system": "OVCAR-3"}, "[27]": {"system": "M14"}, "[28]": {"system": "LOX IMVI"}, "[29]": {"system": "UACC-257"}, "[30]": {"system": "HOP-18"}, "[31]": {"system": "KM-20L2"}, "[32]": {"system": "HCC 2998"}, "[33]": {"system": "RPMI-8226"}, "[34]": {"system": "OVCAR-8"}, "[35]": {"system": "SN12C"}, "[36]": {"system": "SF-295"}, "[37]": {"system": "A549"}, "[38]": {"system": "HT-29"}, "[39]": {"system": "SNB-19"}, "[40]": {"system": "SNB-78"}, "[41]": {"system": "M19-MEL"}, "[42]": {"system": "DMS-114"}, "[43]": {"system": "UACC-62"}, "[44]": {"system": "NCI-H226"}, "[45]": {"system": "SW-620"}, "[46]": {"system": "HCT-15"}, "[47]": {"system": "KM12"}, "[48]": {"system": "IGROV-1"}, "[49]": {"system": "OVCAR-4"}, "[50]": {"system": "786-0"}, "[51]": {"system": "SNB-75"}, "[52]": {"system": "K562"}, "[53]": {"system": "A498"}, "[54]": {"system": "SF-268"}, "[55]": {"system": "SR"}, "[56]": {"system": "NCI-H23"}, "[57]": {"system": "NCI-H522"}, "[58]": {"system": "SF-539"}}, "note": "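Where inhibition never reached the appropriate level, the endpoint shown equals the highest concentration tested. Otherwise, values were interpolated linearly from a five-concentration, 48-hour dose response in 96-well plates. Abbreviation: GI50, concentration required for 50% inhibition of growth.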 The source made the active and inactive calls. No stated cut-off is given here; in the data, active = GI50 up to about 1.1 µM and inactive = higher."}
{"smiles": "CN[C@H](C)[C@@H](OC)c1ccccc1", "values": [{"measurement": "GI50", "setting": "[1]", "result": "> 100 µM (inactive)"}, {"measurement": "GI50", "setting": "[2]", "result": "> 100 µM (inactive)"}, {"measurement": "GI50", "setting": "[3]", "result": "> 100 µM (inactive)"}, {"measurement": "GI50", "setting": "[4]", "result": "> 100 µM (inactive)"}, {"measurement": "GI50", "setting": "[5]", "result": "> 100 µM (inactive)"}, {"measurement": "GI50", "setting": "[6]", "result": "> 100 µM (inactive)"}, {"measurement": "GI50", "setting": "[7]", "result": "> 100 µM (inactive)"}, {"measurement": "GI50", "setting": "[8]", "result": "> 100 µM (inactive)"}, {"measurement": "GI50", "setting": "[9]", "result": "> 100 µM (inactive)"}, {"measurement": "GI50", "setting": "[10]", "result": "> 100 µM (inactive)"}, {"measurement": "GI50", "setting": "[11]", "result": "> 100 µM (inactive)"}, {"measurement": "GI50", "setting": "[12]", "result": "> 100 µM (inactive)"}, {"measurement": "GI50", "setting": "[13]", "result": "> 100 µM (inactive)"}, {"measurement": "GI50", "setting": "[14]", "result": "> 100 µM (inactive)"}, {"measurement": "GI50", "setting": "[15]", "result": "> 100 µM (inactive)"}, {"measurement": "GI50", "setting": "[16]", "result": "> 100 µM (inactive)"}, {"measurement": "GI50", "setting": "[17]", "result": "> 100 µM (inactive)"}, {"measurement": "GI50", "setting": "[18]", "result": "> 100 µM (inactive)"}, {"measurement": "GI50", "setting": "[19]", "result": "> 100 µM (inactive)"}, {"measurement": "GI50", "setting": "[20]", "result": "> 100 µM (inactive)"}, {"measurement": "GI50", "setting": "[21]", "result": "> 100 µM (inactive)"}, {"measurement": "GI50", "setting": "[22]", "result": "> 100 µM (inactive)"}, {"measurement": "GI50", "setting": "[23]", "result": "> 100 µM (inactive)"}, {"measurement": "GI50", "setting": "[24]", "result": "> 100 µM (inactive)"}, {"measurement": "GI50", "setting": "[25]", "result": "> 100 µM (inactive)"}, {"measurement": "GI50", "setting": "[26]", "result": "> 100 µM (inactive)"}, {"measurement": "GI50", "setting": "[27]", "result": "> 100 µM (inactive)"}, {"measurement": "GI50", "setting": "[28]", "result": "> 100 µM (inactive)"}, {"measurement": "GI50", "setting": "[29]", "result": "> 100 µM (inactive)"}, {"measurement": "GI50", "setting": "[30]", "result": "> 100 µM (inactive)"}, {"measurement": "GI50", "setting": "[31]", "result": "> 100 µM (inactive)"}, {"measurement": "GI50", "setting": "[32]", "result": "> 100 µM (inactive)"}, {"measurement": "GI50", "setting": "[33]", "result": "> 100 µM (inactive)"}, {"measurement": "GI50", "setting": "[34]", "result": "> 100 µM (inactive)"}, {"measurement": "GI50", "setting": "[35]", "result": "> 100 µM (inactive)"}, {"measurement": "GI50", "setting": "[36]", "result": "> 100 µM (inactive)"}, {"measurement": "GI50", "setting": "[37]", "result": "> 100 µM (inactive)"}, {"measurement": "GI50", "setting": "[38]", "result": "> 100 µM (inactive)"}, {"measurement": "GI50", "setting": "[39]", "result": "> 100 µM (inactive)"}, {"measurement": "GI50", "setting": "[40]", "result": "> 100 µM (inactive)"}, {"measurement": "GI50", "setting": "[41]", "result": "> 100 µM (inactive)"}, {"measurement": "GI50", "setting": "[42]", "result": "> 100 µM (inactive)"}, {"measurement": "GI50", "setting": "[43]", "result": "> 100 µM (inactive)"}, {"measurement": "GI50", "setting": "[44]", "result": "> 100 µM (inactive)"}, {"measurement": "GI50", "setting": "[45]", "result": "> 100 µM (inactive)"}, {"measurement": "GI50", "setting": "[46]", "result": "> 100", "unit": "µM"}, {"measurement": "GI50", "setting": "[47]", "result": "> 100 µM (inactive)"}, {"measurement": "GI50", "setting": "[48]", "result": "> 100 µM (inactive)"}, {"measurement": "GI50", "setting": "[49]", "result": "> 100 µM (inactive)"}, {"measurement": "GI50", "setting": "[50]", "result": "> 100 µM (inactive)"}, {"measurement": "GI50", "setting": "[51]", "result": "61.4 µM (inactive)"}, {"measurement": "GI50", "setting": "[52]", "result": "> 100 µM (inactive)"}]}
{"smiles": "CC(=O)Nc1ccc(OCC(O)CO)cc1", "note": "(stereo not drawn)", "values": [{"measurement": "GI50", "setting": "[53]", "result": "> 100 µM (inactive)"}, {"measurement": "GI50", "setting": "[1]", "result": "> 100 µM (inactive)"}, {"measurement": "GI50", "setting": "[2]", "result": "> 100 µM (inactive)"}, {"measurement": "GI50", "setting": "[3]", "result": "> 100 µM (inactive)"}, {"measurement": "GI50", "setting": "[4]", "result": "56.5 µM (inactive)"}, {"measurement": "GI50", "setting": "[54]", "result": "> 100 µM (inactive)"}, {"measurement": "GI50", "setting": "[5]", "result": "> 100 µM (inactive)"}, {"measurement": "GI50", "setting": "[6]", "result": "> 100 µM (inactive)"}, {"measurement": "GI50", "setting": "[7]", "result": "23.2 µM (inactive)"}, {"measurement": "GI50", "setting": "[8]", "result": "> 100 µM (inactive)"}, {"measurement": "GI50", "setting": "[55]", "result": "> 100 µM (inactive)"}, {"measurement": "GI50", "setting": "[9]", "result": "> 100 µM (inactive)"}, {"measurement": "GI50", "setting": "[10]", "result": "> 100 µM (inactive)"}, {"measurement": "GI50", "setting": "[11]", "result": "52.8 µM (inactive)"}, {"measurement": "GI50", "setting": "[12]", "result": "> 100 µM (inactive)"}, {"measurement": "GI50", "setting": "[13]", "result": "> 100 µM (inactive)"}, {"measurement": "GI50", "setting": "[14]", "result": "> 100 µM (inactive)"}, {"measurement": "GI50", "setting": "[15]", "result": "> 100 µM (inactive)"}, {"measurement": "GI50", "setting": "[16]", "result": "> 100 µM (inactive)"}, {"measurement": "GI50", "setting": "[56]", "result": "> 100 µM (inactive)"}, {"measurement": "GI50", "setting": "[17]", "result": "48.2 µM (inactive)"}, {"measurement": "GI50", "setting": "[18]", "result": "> 100 µM (inactive)"}, {"measurement": "GI50", "setting": "[19]", "result": "> 100 µM (inactive)"}, {"measurement": "GI50", "setting": "[20]", "result": "> 100 µM (inactive)"}, {"measurement": "GI50", "setting": "[21]", "result": "> 100 µM (inactive)"}, {"measurement": "GI50", "setting": "[23]", "result": "> 100 µM (inactive)"}, {"measurement": "GI50", "setting": "[24]", "result": "> 100 µM (inactive)"}, {"measurement": "GI50", "setting": "[25]", "result": "> 100 µM (inactive)"}, {"measurement": "GI50", "setting": "[26]", "result": "> 100 µM (inactive)"}, {"measurement": "GI50", "setting": "[27]", "result": "> 100 µM (inactive)"}, {"measurement": "GI50", "setting": "[28]", "result": "25.5 µM (inactive)"}, {"measurement": "GI50", "setting": "[29]", "result": "> 100 µM (inactive)"}, {"measurement": "GI50", "setting": "[30]", "result": "> 100 µM (inactive)"}, {"measurement": "GI50", "setting": "[57]", "result": "> 100 µM (inactive)"}, {"measurement": "GI50", "setting": "[31]", "result": "> 100 µM (inactive)"}, {"measurement": "GI50", "setting": "[32]", "result": "> 100 µM (inactive)"}, {"measurement": "GI50", "setting": "[33]", "result": "21.2 µM (inactive)"}, {"measurement": "GI50", "setting": "[58]", "result": "> 100 µM (inactive)"}, {"measurement": "GI50", "setting": "[34]", "result": "> 100 µM (inactive)"}, {"measurement": "GI50", "setting": "[35]", "result": "> 100 µM (inactive)"}, {"measurement": "GI50", "setting": "[36]", "result": "> 100 µM (inactive)"}, {"measurement": "GI50", "setting": "[37]", "result": "> 100 µM (inactive)"}, {"measurement": "GI50", "setting": "[38]", "result": "> 100 µM (inactive)"}, {"measurement": "GI50", "setting": "[39]", "result": "> 100 µM (inactive)"}, {"measurement": "GI50", "setting": "[40]", "result": "> 100 µM (inactive)"}, {"measurement": "GI50", "setting": "[41]", "result": "> 100 µM (inactive)"}, {"measurement": "GI50", "setting": "[43]", "result": "> 100 µM (inactive)"}, {"measurement": "GI50", "setting": "[44]", "result": "> 100 µM (inactive)"}, {"measurement": "GI50", "setting": "[45]", "result": "8.3 µM (inactive)"}, {"measurement": "GI50", "setting": "[46]", "result": 29.5, "unit": "µM"}, {"measurement": "GI50", "setting": "[47]", "result": "> 100 µM (inactive)"}, {"measurement": "GI50", "setting": "[48]", "result": "> 100 µM (inactive)"}, {"measurement": "GI50", "setting": "[49]", "result": "> 100 µM (inactive)"}, {"measurement": "GI50", "setting": "[50]", "result": "25.1 µM (inactive)"}, {"measurement": "GI50", "setting": "[51]", "result": "> 100 µM (inactive)"}, {"measurement": "GI50", "setting": "[52]", "result": "16.8 µM (inactive)"}]}
